Measurements: PMC6284057, “Combined Antibacterial Effects of Goat Cathelicidins With Different Mechanisms of Action” (Frontiers in Microbiology, 2018)
Like-named read-outs stand apart in the source and are kept apart here. No end group written: not given here.

What was measured:
[1] = test system: E. coli XDR CI 1057 (26 days with mini-ChBac7.5Nα)
Procedure: (§1) Antimicrobial assay was performed as described previously ([Panteleev et al., 2017b]). Briefly, mid-log phase bacterial test cultures were diluted with the 2× Mueller-Hinton broth (MH, Sigma) supplemented with 1.8% NaCl or without it so that to reach a final cell concentration of 10^6 CFU/ml. 50 μl aliquots of the obtained bacterial suspension were added to 50 μl of the peptide solutions serially diluted with 0.1% water solution of bovine serum albumin (BSA) in 96-well flat-bottom polystyrene microplates (Eppendorf #0030730011). […] The results were expressed as the median values determined on the basis of at least three independent experiments performed in triplicate.
(§2) Resistance induction experiments were performed using the previously described method ([Chernysh et al., 2015]) with some modifications. Briefly, on day 1, the overnight culture of wild-type bacteria was diluted with the 2× MH broth containing 1.8% NaCl so that to reach a final cell concentration of 10^6 CFU/ml. 50 μl aliquots of the obtained bacterial suspension were added to 50 μl of the peptide solutions serially diluted with 0.1% water solution of BSA in 96-well microplates (Eppendorf #0030730011). After incubation at 37°C and 900 rpm for 22 ± 2 h, MICs were determined as described above. For each subsequent daily transfer, 5 μl of the inoculum taken from the first well with a sub-inhibitory drug concentration were diluted with 1 ml of the fresh 2× MH broth supplemented with 1.8% NaCl. […] 26 repeated passages in the presence of antimicrobial agents were made for each bacterial strain during the experiment. […] Control serial passages in the absence of the agent were also performed.

[2] = test system: E. coli XDR CI 1057 (26 days without antimicrobial agent)
Procedure: as §1, §2

[3] = test system: P. mirabilis (XDR CI 3423); experiment: microbe, parasite or virus in culture; format: cell-based, Proteus mirabilis; settings: Table S2, XDR clinical isolate; NaCl content of medium not stated; read-out: Minimum inhibitory concentration
Procedure: (§3) Antimicrobial assay was performed as described previously ([Panteleev et al., 2017b]). Briefly, mid-log phase bacterial test cultures were diluted with the 2× Mueller-Hinton broth (MH, Sigma) supplemented with 1.8% NaCl or without it so that to reach a final cell concentration of 10^6 CFU/ml. 50 μl aliquots of the obtained bacterial suspension were added to 50 μl of the peptide solutions serially diluted with 0.1% water solution of bovine serum albumin (BSA) in 96-well flat-bottom polystyrene microplates (Eppendorf #0030730011). After incubation at 37°C and 900 rpm for 24 h the minimum inhibitory concentrations (MIC) were determined as the lowest peptide concentrations that prevented growth of a test microorganism observed as visible turbidity. The results were expressed as the median values determined on the basis of at least three independent experiments performed in triplicate.

[4] = test system: E. coli ML-35p; format: cell-based, Escherichia coli; settings: for Fractional inhibitory concentration (FICA, FICB): [X]/MICX; for Fractional inhibitory concentration (FICA, FICB) / MIC of the peptide when used together ([A], [B]): 0.9% NaCl; for MIC of the peptide when used together ([A], [B]): in the mix ChMAP-28 + mini-ChBac7.5Nα, other peptide at sub-inhibitory concentration; for MIC of the individual peptide (MICA, MICB): peptide used individually, medium with physiological NaCl (0.9%), median of 3 experiments in duplicate
Procedure: as §3
(§4) The peptides were twofold serially diluted with 0.1% BSA in 96-well microplates (Eppendorf #0030730011). Then, the peptide solutions were mixed in the new test plate crosswise in such a way that the resulting checkerboard contained each combination of the cathelicidins in eight doubly increasing concentrations, with wells containing the highest concentration of each peptide at opposite corners ([Berditsch et al., 2015]). Then, the antimicrobial assay was performed as described in the previous section. […] The results were expressed as the median values determined on the basis of three independent experiments performed in duplicate. Estimation of synergistic effects of different cathelicidins was performed by calculating the fractional inhibitory concentration index (FICI) according to the equation: FICI = [À]/MICÀ + [B]/MICB, where MICÀ and MICB are the MICs of the individual substances, while [A] and [B] are the MICs of A and B when used together. A synergistic effect was defined at a FICI ≤ 0.5.

[5] = test system: E. coli (CI 214); format: cell-based, Escherichia coli; settings: CI 214, 24 h
Procedure: as §3, §4

[6] = test system: E. coli BL21 (DE3); format: cell-based, Escherichia coli; settings: BL21, 24 h
Procedure: as §3, §4

[7] = test system: E. coli C600; format: cell-based, Escherichia coli
Procedure: as §3, §4

[8] = test system: E. coli (XDR CI 1057); format: cell-based, Escherichia coli; settings: for Fractional inhibitory concentration (FICA, FICB): [X]/MICX; for Fractional inhibitory concentration (FICA, FICB) / MIC of the peptide when used together ([A], [B]): 0.9% NaCl; for MIC of the peptide when used together ([A], [B]): in the mix ChMAP-28 + mini-ChBac7.5Nα, other peptide at sub-inhibitory concentration; for MIC of the individual peptide (MICA, MICB): peptide used individually, medium with physiological NaCl (0.9%), median of 3 experiments in duplicate
Procedure: as §3, §4

[9] = test system: HEK293T cells; experiment: Cytotoxicity (MTT assay); format: cell-based, human; settings: 24 h incubation, 3 independent experiments, read-out: IC50 against HEK293T cells
Procedure: Hemolytic activity of the peptides was tested against the fresh suspension of human red blood cells (hRBC) using the hemoglobin release assay as described previously ([Panteleev et al., 2016]). Three experiments were performed with the hRBC from blood samples obtained from independent donors. The obtained data were represented as average means with standard deviations. The cytotoxicity of the peptides against HEK293T (transformed human embryonic kidney cells) and HEF (human embryonic fibroblasts) cell lines was studied using the colorimetric 3-(4,5-dimethylthiazol-2-yl)-2,5-diphenyltetrazolium bromide (MTT) dye reduction assay according to ([Panteleev and Ovchinnikova, 2017]). Three independent experiments were performed for each peptide. Half maximal inhibitory concentration (IC50) values were estimated as described previously ([Kuzmin et al., 2018]).

[10] = test system: S. aureus 209P; format: cell-based, Staphylococcus aureus; settings: 24 h
Procedure: as §3, §4

[11] = test system: K. pneumoniae (CI 287); format: cell-based, Klebsiella pneumoniae
Procedure: as §3, §4

[12] = test system: E. cloacae (XDR CI 4172); format: cell-based, Enterobacter cloacae; settings: for Fractional inhibitory concentration (FICA, FICB): [X]/MICX; for Fractional inhibitory concentration (FICA, FICB) / MIC of the peptide when used together ([A], [B]): 0.9% NaCl; for MIC of the peptide when used together ([A], [B]): in the mix ChMAP-28 + mini-ChBac7.5Nα, other peptide at sub-inhibitory concentration; for MIC of the individual peptide (MICA, MICB): peptide used individually, medium with physiological NaCl (0.9%), median of 3 experiments in duplicate
Procedure: as §3, §4

[13] = test system: A. baumannii (XDR CI 2675); experiment: microbe, parasite or virus in culture; format: cell-based, Acinetobacter baumannii; settings: read-out: Minimum inhibitory concentration
Procedure: as §3

[14] = Table 4, strain after 26 days with mini-ChBac7.5Nα (selection in MH broth with 0.9% NaCl)
[15] = With 0.9% NaCl, resistant strain, 26 days with mini-ChBac7.5Nα
[16] = Without salt, resistant strain, 26 days with mini-ChBac7.5Nα
[17] = Table 4, strain after 26 days without antimicrobial agent (selection in MH broth with 0.9% NaCl)
[18] = With 0.9% NaCl, control strain, 26 days without antimicrobial agent
[19] = Without salt, control strain, 26 days without antimicrobial agent
[20] = 0.9% NaCl, Mueller-Hinton broth, 10^6 CFU/ml, 0.1% BSA, 37°C, 24 h, median of at least 3 experiments
[21] = Without NaCl, Mueller-Hinton broth, 10^6 CFU/ml, 0.1% BSA, 37°C, 24 h, median of at least 3 experiments

| Sequence | Minimum inhibitory concentration [1, 14] | Minimum inhibitory concentration [1, 15] | Minimum inhibitory concentration [1, 16] | Minimum inhibitory concentration [2, 17] | Minimum inhibitory concentration [2, 18] | Minimum inhibitory concentration [2, 19] | Fractional inhibitory concentration (FICA, FICB) [4] | MIC of the peptide when used together ([A], [B]) [4] | MIC of the individual peptide (MICA, MICB) [4] | MIC of the individual peptide (MICA, MICB) [5] | Fractional inhibitory concentration (FICA, FICB) [6] | MIC of the individual peptide (MICA, MICB) [6] | Fractional inhibitory concentration (FICA, FICB) [8] | MIC of the peptide when used together ([A], [B]) [8] | MIC of the individual peptide (MICA, MICB) [8] | Fractional inhibitory concentration (FICA, FICB) [10] | MIC of the individual peptide (MICA, MICB) [10] | MIC of the individual peptide (MICA, MICB) ([11]; CI 287, 24 h) | Fractional inhibitory concentration (FICA, FICB) [12] | MIC of the peptide when used together ([A], [B]) [12] | also measured |
| --- | --- | --- | --- | --- | --- | --- | --- | --- | --- | --- | --- | --- | --- | --- | --- | --- | --- | --- | --- | --- | --- |
| GRFKRFRKKLKRLWHKVGPFVGPILHY [ChMAP-28] | 0.125 µM | 0.125 µM | 0.125 µM | 0.125 µM | 0.125 µM | 0.125 µM | 0.125 | 0.008 µM | 0.06 µM | 0.06 µM | 0.25 | 0.06 µM | 0.063 | 0.008 µM | 0.125 µM | 0.063 | 0.5 µM | 0.5 µM | 0.125 | 0.03 µM | MIC [3]: 0.5 µM; Fractional inhibitory concentration (FICA, FICB) [5]: 0.25; Fractional inhibitory concentration (FICA, FICB) ([7]; [X]/MICX, 0.9% NaCl): 0.125-0.25; MIC of the individual peptide (MICA, MICB) ([7]; peptide used individually, medium with physiological NaCl (0.9%), median of 3 experiments in duplicate): 0.125 µM; IC50 [9]: ~3.5 µM; Fractional inhibitory concentration (FICA, FICB) ([11]; [X]/MICX, 0.9% NaCl): 0.125; MIC of the individual peptide (MICA, MICB) [12]: 0.25 µM; MIC [13, 20]: 0.25 µM; MIC ([13]; Table S2, XDR clinical isolate, NaCl content of medium not stated): 0.25 µM; MIC [13, 21]: 0.03 µM |
| RRLRPRRPRLPRPRPRPRPRPR [mini-ChBac7.5Nα] | >128 µM | >256 µM | 1 µM | 8 µM | 8 µM | 1 µM | 0.25 | 1 µM | 4 µM | >64 µM | 0.125 | 8 µM | 0.25 | 2 µM | 8 µM | 0.125 | 16 µM | 16 µM | 0.125 | 0.5 µM | Fractional inhibitory concentration (FICA, FICB) ([7]; C600, 24 h): 0.25; MIC of the individual peptide (MICA, MICB) ([7]; C600, 24 h): 4 µM; Fractional inhibitory concentration (FICA, FICB) ([11]; CI 287, 24 h): 0.125; MIC of the individual peptide (MICA, MICB) [12]: 4 µM; MIC [13, 20]: >32 µM; MIC [13, 21]: 2 µM |
